Measurements published in patent publication US20170281573A1, “MEDICINAL COMPOSITION FOR ENHANCED DELIVERY OF TRITERPENES” (PHARCON INC., priority 2016, published 2017).
Counter-ions that a name gives are not always drawn.

Assay: Water solubility
Format: physicochemical

Row | water solubility | SMILES
1 | below 1 mcg/ml | C[C@H]1[C@H](C)CC[C@]2(C(=O)O)CC[C@]3(C)C(=CC[C@@H]4[C@@]5(C)C[C@@H](O)[C@H](O)C(C)(C)[C@@H]5CC[C@]43C)[C@H]12 [Corosolic acid]
2 | less than 5 mcg/ml | C[C@H]1[C@H](C)CC[C@]2(C(=O)O)CC[C@]3(C)C(=CC[C@@H]4[C@@]5(C)C[C@@H](O)[C@H](O)C(C)(C)[C@@H]5CC[C@]43C)[C@H]12 [sodium salt of this acid]
